# Reference: ChEMBL document CHEMBL1201862, “PubChem BioAssay data set” (2004)
#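 These data come from cells grown in 96-well plates and exposed to compound for 48 hours at five concentrations. GI50 = concentration required for 50% inhibition of growth.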 Active and inactive are the calls of the source. No stated cut-off is given here; in the data, active = GI50 up to about 1.1 µM and inactive = higher.
# What was measured:
# Assay in all cases: NCI-60 cell line screen, 48 h
# 786-0 = test system: 786-0
# A498 = test system: A498
# A549 = test system: A549
# ACHN = test system: ACHN
# BT-549 = test system: BT-549
# CAKI-1 = test system: CAKI-1
# CCRF-CEM = test system: CCRF-CEM
# COLO 205 = test system: COLO 205
# DLD-1 = test system: DLD-1
# DMS-114 = test system: DMS-114
# DMS-273 = test system: DMS-273
# DU-145 = test system: DU-145
# EKVX = test system: EKVX
# HCC 2998 = test system: HCC 2998
# HCT-116 = test system: HCT-116
# HCT-15 = test system: HCT-15
# HL-60 = test system: HL-60
# HOP-18 = test system: HOP-18
# HOP-62 = test system: HOP-62
# HOP-92 = test system: HOP-92
# HT-29 = test system: HT-29
# Hs-578T = test system: Hs-578T
# IGROV-1 = test system: IGROV-1
# K562 = test system: K562
# KM-20L2 = test system: KM-20L2
# KM12 = test system: KM12
# LOX IMVI = test system: LOX IMVI
# LXFL 529 = test system: LXFL 529
# M14 = test system: M14
# M19-MEL = test system: M19-MEL
# MCF7 = test system: MCF7
# MDA-MB-435 = test system: MDA-MB-435
# MOLT-4 = test system: MOLT-4
# Malme-3M = test system: Malme-3M
# NCI-H226 = test system: NCI-H226
# NCI-H23 = test system: NCI-H23
# NCI-H460 = test system: NCI-H460
# NCI-H522 = test system: NCI-H522
# OVCAR-3 = test system: OVCAR-3
# OVCAR-4 = test system: OVCAR-4
# OVCAR-5 = test system: OVCAR-5
# OVCAR-8 = test system: OVCAR-8
# RPMI-8226 = test system: RPMI-8226
# SF-268 = test system: SF-268
# SF-295 = test system: SF-295
# SF-539 = test system: SF-539
# SK-MEL-28 = test system: SK-MEL-28
# SK-MEL-2 = test system: SK-MEL-2
# SK-MEL-5 = test system: SK-MEL-5
# SK-OV-3 = test system: SK-OV-3
# SN12C = test system: SN12C
# SNB-19 = test system: SNB-19
# SNB-75 = test system: SNB-75
# SNB-78 = test system: SNB-78
# SR = test system: SR
# SW-620 = test system: SW-620
# T47D = test system: T47D
# TK-10 = test system: TK-10
# U-251 = test system: U-251
# UACC-257 = test system: UACC-257
# UACC-62 = test system: UACC-62
# UO-31 = test system: UO-31
# XF498 = test system: XF498
# RXF 393 = test system: RXF 393
# RXF 631 = test system: RXF 631
smiles,measurement,setting,value
O=C(O)COc1ccc(C(=O)/C(SS/C(C(=O)c2ccc(OCC(=O)O)c(Cl)c2Cl)=C2\C=C(c3ccc(F)cc3)SS2)=C2/C=C(c3ccc(F)cc3)SS2)c(Cl)c1Cl,GI50,786-0,27.9 µM (inactive)
same,GI50,A498,31.7 µM (inactive)
same,GI50,A549,40.4 µM (inactive)
same,GI50,ACHN,18.6 µM (inactive)
same,GI50,BT-549,27.7 µM (inactive)
same,GI50,CAKI-1,33.5 µM (inactive)
same,GI50,CCRF-CEM,4.95 µM (inactive)
same,GI50,COLO 205,6.76 µM (inactive)
same,GI50,DLD-1,11.2 µM (inactive)
same,GI50,DMS-114,3.28 µM (inactive)
same,GI50,DMS-273,13.6 µM (inactive)
same,GI50,DU-145,26.6 µM (inactive)
same,GI50,EKVX,38.6 µM (inactive)
same,GI50,HCC 2998,25.6 µM (inactive)
same,GI50,HCT-116,9.29 µM (inactive)
same,GI50,HCT-15,9.71 µM
same,GI50,HL-60,2.37 µM (inactive)
same,GI50,HOP-18,14.7 µM (inactive)
same,GI50,HOP-62,33.9 µM (inactive)
same,GI50,HOP-92,3.75 µM (inactive)
same,GI50,HT-29,26.9 µM (inactive)
same,GI50,Hs-578T,3.83 µM (inactive)
same,GI50,IGROV-1,10.8 µM (inactive)
same,GI50,K562,4.22 µM (inactive)
same,GI50,KM-20L2,30 µM (inactive)
same,GI50,KM12,15.1 µM (inactive)
same,GI50,LOX IMVI,3.12 µM (inactive)
same,GI50,LXFL 529,3.29 µM (inactive)
same,GI50,M14,23.6 µM (inactive)
same,GI50,M19-MEL,13.2 µM (inactive)
same,GI50,MCF7,36.8 µM (inactive)
same,GI50,MDA-MB-435,49.4 µM (inactive)
same,GI50,MOLT-4,8.67 µM (inactive)
same,GI50,Malme-3M,40.8 µM (inactive)
same,GI50,NCI-H226,15.1 µM (inactive)
same,GI50,NCI-H23,13.2 µM (inactive)
same,GI50,NCI-H460,21.7 µM (inactive)
same,GI50,NCI-H522,2.38 µM (inactive)
same,GI50,OVCAR-3,9.46 µM (inactive)
same,GI50,OVCAR-4,13.4 µM (inactive)
same,GI50,OVCAR-5,32.8 µM (inactive)
same,GI50,OVCAR-8,14 µM (inactive)
same,GI50,RPMI-8226,10.1 µM (inactive)
same,GI50,SF-268,6.9 µM (inactive)
same,GI50,SF-295,20.8 µM (inactive)
same,GI50,SF-539,9.02 µM (inactive)
same,GI50,SK-MEL-28,19.2 µM (inactive)
same,GI50,SK-MEL-2,15.6 µM (inactive)
same,GI50,SK-MEL-5,17.5 µM (inactive)
same,GI50,SK-OV-3,41.7 µM (inactive)
same,GI50,SN12C,14.7 µM (inactive)
same,GI50,SNB-19,15 µM (inactive)
same,GI50,SNB-75,17.2 µM (inactive)
same,GI50,SNB-78,6.08 µM (inactive)
same,GI50,SR,3.76 µM (inactive)
same,GI50,SW-620,15.6 µM (inactive)
same,GI50,T47D,3.13 µM (inactive)
same,GI50,TK-10,37.8 µM (inactive)
same,GI50,U-251,5.75 µM (inactive)
same,GI50,UACC-257,27.5 µM (inactive)
same,GI50,UACC-62,8.24 µM (inactive)
same,GI50,UO-31,15.7 µM (inactive)
same,GI50,XF498,5.22 µM (inactive)
CN1C(=O)CC2(C)c3cc(O)cc(Br)c3N(C)C12 (configuration not stated),GI50,786-0,> 100 µM (inactive)
same,GI50,A498,> 100 µM (inactive)
same,GI50,A549,> 100 µM (inactive)
same,GI50,ACHN,> 100 µM (inactive)
same,GI50,CCRF-CEM,> 100 µM (inactive)
same,GI50,COLO 205,> 100 µM (inactive)
same,GI50,DMS-114,> 100 µM (inactive)
same,GI50,EKVX,> 100 µM (inactive)
same,GI50,HCC 2998,> 100 µM (inactive)
same,GI50,HCT-116,> 100 µM (inactive)
same,GI50,HCT-15,> 100 µM
same,GI50,HOP-18,31.6 µM (inactive)
same,GI50,HOP-62,> 100 µM (inactive)
same,GI50,HOP-92,> 100 µM (inactive)
same,GI50,HT-29,> 100 µM (inactive)
same,GI50,IGROV-1,> 100 µM (inactive)
same,GI50,K562,> 100 µM (inactive)
same,GI50,KM-20L2,> 100 µM (inactive)
same,GI50,KM12,> 100 µM (inactive)
same,GI50,LOX IMVI,> 100 µM (inactive)
same,GI50,LXFL 529,> 100 µM (inactive)
same,GI50,M14,> 100 µM (inactive)
same,GI50,M19-MEL,> 100 µM (inactive)
same,GI50,MOLT-4,> 100 µM (inactive)
same,GI50,Malme-3M,> 100 µM (inactive)
same,GI50,NCI-H226,> 100 µM (inactive)
same,GI50,NCI-H23,> 100 µM (inactive)
same,GI50,NCI-H460,> 100 µM (inactive)
same,GI50,NCI-H522,> 100 µM (inactive)
same,GI50,OVCAR-3,> 100 µM (inactive)
same,GI50,OVCAR-4,> 10 µM (inactive)
same,GI50,OVCAR-5,> 100 µM (inactive)
same,GI50,OVCAR-8,> 100 µM (inactive)
same,GI50,RXF 393,> 100 µM (inactive)
same,GI50,SF-268,> 100 µM (inactive)
same,GI50,SF-295,> 100 µM (inactive)
same,GI50,SF-539,> 100 µM (inactive)
same,GI50,SK-MEL-28,> 100 µM (inactive)
same,GI50,SK-MEL-2,> 100 µM (inactive)
same,GI50,SK-MEL-5,> 100 µM (inactive)
same,GI50,SK-OV-3,> 100 µM (inactive)
same,GI50,SN12C,> 100 µM (inactive)
same,GI50,SNB-19,> 100 µM (inactive)
same,GI50,SNB-75,30.8 µM (inactive)
same,GI50,SNB-78,> 100 µM (inactive)
same,GI50,SW-620,> 100 µM (inactive)
same,GI50,TK-10,> 100 µM (inactive)
same,GI50,U-251,> 100 µM (inactive)
same,GI50,UACC-257,> 100 µM (inactive)
same,GI50,UACC-62,81.5 µM (inactive)
same,GI50,UO-31,57.7 µM (inactive)
same,GI50,XF498,> 100 µM (inactive)
C/C(=C\C(C[C@](C)(O)C(O)CCC#C[Si](C)(C)C)S(=O)(=O)c1ccccc1)CC/C=C/CO[Si](C)(C)C(C)(C)C (some centres not stated),GI50,786-0,17 µM (inactive)
same,GI50,A498,17.5 µM (inactive)
same,GI50,A549,15 µM (inactive)
same,GI50,ACHN,16 µM (inactive)
same,GI50,CAKI-1,18.6 µM (inactive)
same,GI50,CCRF-CEM,10.6 µM (inactive)
same,GI50,DLD-1,23.6 µM (inactive)
same,GI50,DMS-114,15.2 µM (inactive)
same,GI50,DMS-273,15.7 µM (inactive)
same,GI50,EKVX,19.7 µM (inactive)
same,GI50,HCC 2998,21 µM (inactive)
same,GI50,HCT-116,13.4 µM (inactive)
same,GI50,HCT-15,17.4 µM
same,GI50,HL-60,14.9 µM (inactive)
same,GI50,HOP-62,21.4 µM (inactive)
same,GI50,HOP-92,11.9 µM (inactive)
same,GI50,HT-29,3.57 µM (inactive)
same,GI50,IGROV-1,20.8 µM (inactive)
same,GI50,K562,10.7 µM (inactive)
same,GI50,KM-20L2,8.61 µM (inactive)
same,GI50,KM12,16.8 µM (inactive)
same,GI50,LOX IMVI,13.2 µM (inactive)
same,GI50,M14,17.9 µM (inactive)
same,GI50,M19-MEL,17.2 µM (inactive)
same,GI50,MOLT-4,6.95 µM (inactive)
same,GI50,Malme-3M,20.7 µM (inactive)
same,GI50,NCI-H226,22.1 µM (inactive)
same,GI50,NCI-H23,18.2 µM (inactive)
same,GI50,NCI-H460,12.5 µM (inactive)
same,GI50,NCI-H522,16.2 µM (inactive)
same,GI50,OVCAR-3,16 µM (inactive)
same,GI50,OVCAR-4,13.8 µM (inactive)
same,GI50,OVCAR-5,13.7 µM (inactive)
same,GI50,OVCAR-8,17.2 µM (inactive)
same,GI50,RPMI-8226,10.1 µM (inactive)
same,GI50,RXF 393,14.7 µM (inactive)
same,GI50,RXF 631,9.66 µM (inactive)
same,GI50,SF-295,16.5 µM (inactive)
same,GI50,SF-539,20 µM (inactive)
same,GI50,SK-MEL-2,18 µM (inactive)
same,GI50,SK-MEL-5,13.6 µM (inactive)
same,GI50,SK-OV-3,22.6 µM (inactive)
same,GI50,SN12C,6.24 µM (inactive)
same,GI50,SNB-19,19.8 µM (inactive)
same,GI50,SNB-78,16.8 µM (inactive)
same,GI50,SW-620,17.3 µM (inactive)
same,GI50,TK-10,22 µM (inactive)
same,GI50,U-251,13.4 µM (inactive)
same,GI50,UACC-257,17.3 µM (inactive)
same,GI50,UACC-62,17.4 µM (inactive)
same,GI50,UO-31,21.9 µM (inactive)
same,GI50,XF498,13.2 µM (inactive)
